The source of these data is patent publication US12215173B2, “Kappa opioid receptor peptide amide ligands” (priority 2019, dated 2025).

Where two headings read alike, the source gives them in different places. Square brackets hold non-standard residues; d marks the D form. Peptide text beside a SMILES is read from it. * marks the point of attachment. Piperidin1yl(4-NH2,4-COOH) = NC1(C(=O)O)CCN(*)CC1

Test [1] addresses recombinant human kappa (KOR) opioid receptor (Homo sapiens (Human), UniProt P41145). The test is described as follows: biochemical. In kind it is binding. The following applies: HEK293 cell membranes, 0.5 nM [3H]diprenorphine.
Test [2] deals with Opioid Kappa Receptor (recombinant human, HEK293 cells) (Homo sapiens (Human), UniProt P41145). The test is described as follows: cell-based. The following applies: read-out: EC50.
Test [3] deals with recombinant human mu (MOR) opioid receptor (Homo sapiens (Human), UniProt P35372). The test is described as follows: Opioid receptor radioligand binding assay, MOR.
Test [4] concerns the target recombinant human delta (DOR) opioid receptor (Homo sapiens (Human), UniProt P41143). The test is described as follows: Opioid receptor radioligand binding assay, DOR.
Setting [5] is: HEK293 cell membranes, 0.5 nM [3H]DAMGO, read-out: MOR, IC50.
Where [6] appears, read: HEK293 cell membranes, 0.5 nM [3H]DADLE, read-out: DOR, IC50.

Sequence of recombinant human delta (DOR) opioid receptor (P41143 whole entry, looked up): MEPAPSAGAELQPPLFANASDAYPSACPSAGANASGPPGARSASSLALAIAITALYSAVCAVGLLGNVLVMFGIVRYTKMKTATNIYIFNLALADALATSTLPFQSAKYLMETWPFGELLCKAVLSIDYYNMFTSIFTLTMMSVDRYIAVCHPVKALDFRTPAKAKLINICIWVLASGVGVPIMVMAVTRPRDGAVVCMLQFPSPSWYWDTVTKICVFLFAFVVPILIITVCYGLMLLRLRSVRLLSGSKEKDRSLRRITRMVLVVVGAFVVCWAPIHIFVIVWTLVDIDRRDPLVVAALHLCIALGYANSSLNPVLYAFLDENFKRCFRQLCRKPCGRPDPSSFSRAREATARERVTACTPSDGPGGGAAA

Consider `CC(C)C[C@@H](NC(=O)[C@@H](Cc1ccccc1)NC(=O)[C@H](N)Cc1ccccc1)C(=O)N[C@H](CCCCN)C(=O)NC1CCN(C(=O)C(N)=O)CC1` [Compound 13-34], for which the half-maximal inhibitory concentration (IC50) in test [1] was 3.33 nM; in test [3] (setting [5]), 2980 nM; in test [4] (setting [6]), above 10000 nM. In test [2], the 50% effective concentration (EC50) is 20.2 nM.
Consider `CC(C)C[C@@H](NC(=O)[C@@H](Cc1ccccc1)NC(=O)[C@H](N)Cc1ccccc1)C(=O)N[C@H](CCCCN)C(=O)N1CCNC(=O)C1` [Compound 13-14], for which the half-maximal inhibitory concentration (IC50) was 0.21 nM in test [1], above 10000 nM in test [3] (setting [5]) and above 10000 nM in test [4] (setting [6]). Also, the EC50 in test [2] is 12.9 nM.
Regarding `CC(C)C[C@@H](NC(=O)[C@@H](Cc1ccccc1)NC(=O)[C@H](N)Cc1ccccc1)C(=O)N[C@H](CCCCN)C(=O)N1CCN(C(=O)C(=O)N(C)C)CC1` [Compound 13-26], the half-inhibitory concentration (IC50) in test [1] was 1.83 nM; in test [3] (setting [5]), above 10000 nM; in test [4] (setting [6]) it was above 10000 nM. Also, the EC50 in test [2] was 10.2 nM.
Take `CCNC(=O)C(=O)N1CCC(NC(=O)[C@@H](CCCCN)NC(=O)[C@@H](CC(C)C)NC(=O)[C@@H](Cc2ccccc2)NC(=O)[C@H](N)Cc2ccccc2)CC1` [Compound 13-36]: the figures for the half-inhibitory concentration (IC50) in test [1], in test [3] (setting [5]) and in test [4] (setting [6]) were 0.49 nM, above 10000 nM and above 10000 nM, respectively. In test [2], the EC50 is 37.7 nM.
`CC(C)C[C@@H](NC(=O)[C@@H](Cc1ccccc1)NC(=O)[C@H](N)Cc1ccccc1)C(=O)N[C@H](CCCCN)C(=O)N1CCC(NC(=O)C(=O)NC2CC2)CC1` [Compound 13-22]: the IC50 was 0.096 nM in test [1], above 10000 nM in test [3] (setting [5]) and above 10000 nM in test [4] (setting [6]). In test [2], the EC50 came out at 24.8 nM.
With `CC(C)C[C@@H](NC(=O)[C@@H](Cc1ccccc1)NC(=O)[C@H](N)Cc1ccccc1)C(=O)N[C@H](CCCCN)C(=O)N1CCC(NC(=O)/C=C/C(=O)O)CC1` [Compound 13-20], the IC50 in test [1] is 1.44 nM; in test [3] (setting [5]), above 10000 nM; in test [4] (setting [6]), above 10000 nM. For the same compound, in test [2], the EC50 turned out to be 18 nM.
Take `CC(C)C[C@@H](NC(=O)[C@@H](Cc1ccccc1)NC(=O)[C@H](N)Cc1ccccc1)C(=O)N[C@H](CCCCN)C(=O)N1CCOCCOCCOCC1` [Compound 13-15]: the results for the 50% inhibitory concentration (IC50) in test [1], in test [3] (setting [5]) and in test [4] (setting [6]) were 0.41 nM, above 10000 nM and above 10000 nM, respectively. Besides, the EC50 in test [2] came to 51.5 nM.
Regarding `CC(C)C[C@@H](NC(=O)[C@@H](Cc1ccccc1)NC(=O)[C@H](N)Cc1ccccc1)C(=O)N[C@H](CCCCN)C(=O)N1CCN(C(=O)N(C)C)CC1` [Compound 13-59], the half-maximal inhibitory concentration (IC50) was 0.36 nM in test [1], above 10000 nM in test [3] (setting [5]) and above 10000 nM in test [4] (setting [6]). In test [2], the EC50 is 14.3 nM.
For `CC(C)C[C@@H](NC(=O)[C@@H](Cc1ccccc1)NC(=O)[C@H](N)Cc1ccccc1)C(=O)N[C@H](CCCCN)C(=O)NCCOCCOCCO` [Compound 13-52], the 50% inhibitory concentration (IC50) in test [1] was 1.02 nM; in test [3] (setting [5]) it was above 10000 nM; in test [4] (setting [6]), above 10000 nM. Besides, the concentration for a half-maximal effect (EC50) in test [2] was 12.1 nM.
In the case of `CC(C)C[C@@H](NC(=O)[C@@H](Cc1ccccc1)NC(=O)[C@H](N)Cc1ccccc1)C(=O)N[C@H](CCCCN)C(=O)NCc1ccc2c(c1)OCO2` [Compound 13-1], the values for the half-maximal inhibitory concentration (IC50) in test [1], in test [3] and in test [4] were 1.96 nM, 2080 nM and above 10000 nM, respectively. The EC50 in test [2] amounted to 42.2 nM.
For `CC(C)C[C@@H](NC(=O)[C@@H](Cc1ccccc1)NC(=O)[C@H](N)Cc1ccccc1)C(=O)N[C@H](CCCCN)C(=O)NCC(=O)N1CCC(N)(C(=O)O)CC1` [Compound 67] (H-[dF][dF][dL][dK]G-{Piperidin1yl(4-NH2,4-COOH)}), in that order: 24.8 nM, 5150 nM, above 10000 nM and 51.5 nM.
On to `CCOC(=O)C(N)C(=O)NC1CCN(C(=O)[C@@H](CCCCN)NC(=O)[C@@H](CC(C)C)NC(=O)[C@@H](Cc2ccccc2)NC(=O)[C@H](N)Cc2ccccc2)CC1` (stereo partly shown) [Compound 13-39], for which the IC50 in test [1] was 0.23 nM; in test [3] (setting [5]), above 10000 nM; in test [4] (setting [6]), above 10000 nM. Also, the concentration giving a half-maximal response (EC50) in test [2] stood at 14.7 nM.
Turning to `CC(=O)N[C@@H](CCC(N)=O)C(=O)NC1CCN(C(=O)[C@@H](CCCCN)NC(=O)[C@@H](CC(C)C)NC(=O)[C@@H](Cc2ccccc2)NC(=O)[C@H](N)Cc2ccccc2)CC1` [Compound 13-56], the figures for the 50% inhibitory concentration (IC50) in test [1], in test [3] and in test [4] were 0.35 nM, above 10000 nM and above 10000 nM, respectively. Also, the concentration giving a half-maximal response (EC50) in test [2] came to 16.7 nM.
For `COC(=O)C(=O)NC1CCN(C(=O)[C@@H](CCCCN)NC(=O)[C@@H](CC(C)C)NC(=O)[C@@H](Cc2ccccc2)NC(=O)[C@H](N)Cc2ccccc2)CC1` [Compound 13-29], the results for the IC50 in test [1], in test [3] (setting [5]) and in test [4] (setting [6]) were 0.29 nM, 6.86 nM and above 10000 nM, respectively. The EC50 in test [2] turned out to be 15.5 nM.
For `COCCOCCOCCNC(=O)[C@@H](CCCCN)NC(=O)[C@@H](CC(C)C)NC(=O)[C@@H](Cc1ccccc1)NC(=O)[C@H](N)Cc1ccccc1` [Compound 13-5], in that order: 5.92 nM, above 10000 nM, above 10000 nM and 15.8 nM.
Turning to `CNC(=O)C(=O)N1CCC(NC(=O)[C@@H](CCCCN)NC(=O)[C@@H](CC(C)C)NC(=O)[C@@H](Cc2ccccc2)NC(=O)[C@H](N)Cc2ccccc2)CC1` [Compound 13-32], the half-inhibitory concentration (IC50) in test [1] was 8.49 nM; in test [3], 7110 nM; in test [4], above 10000 nM. Moreover, the 50% effective concentration (EC50) in test [2] was found to be 26.5 nM.
Regarding `CCNC(=O)C(=O)NC1CCN(C(=O)[C@@H](CCCCN)NC(=O)[C@@H](CC(C)C)NC(=O)[C@@H](Cc2ccccc2)NC(=O)[C@H](N)Cc2ccccc2)CC1` [Compound 13-35], the results for the 50% inhibitory concentration (IC50) in test [1], in test [3] (setting [5]) and in test [4] (setting [6]) were 0.31 nM, 8430 nM and above 10000 nM, respectively. For the same compound, the 50% effective concentration (EC50) in test [2] amounted to 10.8 nM.
For the compound `COCCOC(=O)C1(N)CCN(C(=O)[C@@H](CCCCN)NC(=O)[C@@H](CC(C)C)NC(=O)[C@@H](Cc2ccccc2)NC(=O)[C@H](N)Cc2ccccc2)C1` (stereo partly shown) [Compound 45], the IC50 was 0.33 nM in test [1], 7370 nM in test [3] (setting [5]) and above 10000 nM in test [4] (setting [6]). The EC50 in test [2] was 30.2 nM.
For `COC(=O)/C=C/C(=O)N1CCC(NC(=O)[C@@H](CCCCN)NC(=O)[C@@H](CC(C)C)NC(=O)[C@@H](Cc2ccccc2)NC(=O)[C@H](N)Cc2ccccc2)CC1` [Compound 13-18], in that order: 2 nM, above 10000 nM, above 10000 nM and 39.3 nM.

The IC50 is the concentration needed to halve the response being measured. The EC50 is the concentration that produces a half-maximal response.
